Assays:
Assay type in all cases: cell-based
[1] = system: endogenous ATP; experiment: Endogenous ATP pools
Description: MM.IS cells were grown in dextrose-free RPMI-1640 media (Invitrogen, Baltimore, Md.) supplemented with 10% fetal bovine serum, 2 mM glutamine, 100 units/ml penicillin, 100 μg/ml streptomycin and 2.5 μg/ml fungizone. Cellular ATP levels were manipulated by the addition of either antimycin (2 μM, a mitochondrial inhibitor) or 2-deoxy-D-glucose (2-DOG, 5 mM, an inhibitor of glycolysis) from Sigma (St. Louis, Mo.) with and without varying concentrations of dextrose. Six different metabolic conditions were examined: 1) antimycin without dextrose, 2) antimycin+0.25 mM dextrose, 3) antimycin+1 mM dextrose, 4) antimycin+10 mM dextrose, 5) 2-DOG without dextrose, 6) 2-DOG+10 mM dextrose. Control cells were not subjected to ATP depletion; 10 mM dextrose was added to dextrose-free RMPI-1640. Endogenous ATP was measured in a luciferase-based assay using the ATP Determination Kit from Molecular Probes (Eugene, Oreg.) and the levels corresponding to each treatment were normalized to untreated controls (20).

[2] = system: poly (ADP-ribose) polymerase; experiment: PARP cleavage immunoblot in MM.1 S cells; conditions: 10 μM
Description: (§1) 5×10^6 were cells treated with 10 μM 8-NH2-Ado for the indicated times and harvested. Cell pellets were washed with cold phosphate-buffered saline (PBS; 8.1 g NaCl, 1.14 g Na2HPO4, 0.22 g KCl, and 0.25 g/L KH2PO4) and incubated with lysis buffer (50 mM HEPES, 150 mM NaCl, 1.5 mM MgCl2, 1 mM EDTA pH 8.0, 100 mM NaFI, 10 mM Na Pyrophosphate, 500 μM PMSF, 0.5% Triton X-100, 10% glycerol) at 4° C. for one hour. Lysates were centrifuged at 4° C. for 1 minute at 9000×g, and the supernatants were collected and stored at −20° C. Protein concentration was determined by Bio-Rad protein assay (BioRad Laboratories, Hercules, Calif.). Protein, at a concentration of 30 μg, was mixed with sample buffer (125 mM Tris, pH 6.8, 4% SDS, 20% glycerol, 100 mM Dithiothreitol (DTT), and 0.05% bromophenol blue), and fractionated on a pre-cast 8-16% Tris-Glycine gel (Invitrogen/Novex, Carlsbad, Calif.). […]
MM.1 S cells were exposed to 10 μM 8-NH2-Ado for 0, 0.5, 1, 2, 4 or 6 hours, after which cells were lysed as previously described. […] Total protein levels were also assessed to ensure equal loading and transfer (data not shown). […]

[3] = system: MM.1 S cells; experiment: Cell cycle analysis by flow cytometry (subG1 fraction); conditions: 10 μM, up to 4 hours
Description: MM1 S cells were incubated with 10 μM 8-NH2-adenosine 0.5, 1, 2, 4 or 24 hours. To determine the distribution of cells within the cell cycle, I×10^6 MM. I S cells were pelleted (500×g for 5 minutes at 4° C.), and washed twice in ice-cold PBS, fixed in ice-cold 70% ethanol, and stored at 4° C. until analyzed. Before analysis by flow cytometry, the fixed cells were pelleted, washed in PBS, and resuspended in ice-cold flow buffer (PBS containing 0.5% Tween 20, 15 μg/mL propidium iodide, and 5 μg/mL DNase-free RNase). The stained cells were analyzed using an Epics Profile II flow cytometer (Coulter Electronics, Inc., Hialeah, Fla.). FIG. 2 provides the results of this experiment. To ascertain whether the changes in phosphorylation levels of these key signaling molecules is a direct result of cell death, parallel cultures were assessed for cellular viability by cell cycle analysis. Cells undergoing apoptosis have a reduced DNA content caused by cleavage and loss of small DNA fragments. Therefore, apoptotic cells are identified as those cells in the subG1 fraction of the cell cycle.

[4] = system: MKP1; experiment: Immunoblot of MKP1 in MM.1 S cells; conditions: 10 μM, 0-6 hours
Description: as §1
One possible mechanism for the decrease in phosphorylation of the kinase molecules and their substrates is an increase in the activity of the phosphatase(s) that regulate them. To test this hypothesis, levels of MKPI, a dual specificity phosphatase that can act to dephosphorylate p38 MAPK, were assessed MM.1 S cells were exposed to 10 μM 8-NH2-Ado for 0, 0.5, 1, 2, 4 and 6 hours after which cells were lysed as previously described. […]

Nc1ncnc2c1nc(N)n2[C@@H]1O[C@H](CO)[C@@H](O)[C@H]1O [8-NH2-Ado, 8-amino-adenosine]
endogenous ATP pools [1]: dramatic shifts | start of cleavage of poly (ADP-ribose) polymerase [2]: ≥ 2 h | subG1 fraction versus untreated cells [3]: no differences | MKP1 levels [4]: unaltered
